For test [1], the target named is T1, Human Leukocyte Elastase (Homo sapiens, UniProt P08246).
T1 sequence (P08246 30-267): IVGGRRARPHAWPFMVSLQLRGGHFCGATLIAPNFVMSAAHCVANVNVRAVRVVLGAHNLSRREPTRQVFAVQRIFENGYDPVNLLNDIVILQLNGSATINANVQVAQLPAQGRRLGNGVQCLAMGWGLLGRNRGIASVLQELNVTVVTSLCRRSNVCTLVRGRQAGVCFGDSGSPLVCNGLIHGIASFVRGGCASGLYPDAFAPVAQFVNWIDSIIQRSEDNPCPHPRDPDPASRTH
Conditions: Q. Ying et al., 1991; cited from earlier work.

The subject of test [2] is small capillaries. In words: inventor's experiments on the effect of DMSO on blood vessels. As to conditions: DMSO in a concentration ranging between 50% and 100%; best results at substantially 100%. The text has this: The higher the DMSO concentration was taken, the better result was achieved. Such phenomenon may effectively contribute to stopping leakage of capillaries and formation of blister, whereas the leakage and blister are the major factors leading to infections and delayed wound healing, and therefore to scar formation. […] The best results have been observed for usage of DMSO in the concentration of substantially 100%.
(d) DMSO (dimethyl sulfoxide) is known as an industrial solvent that has the ability to penetrate plant and animal tissues and to preserve living cells during freezing. It has bacteriostatic, anti-inflammatory, analgesic, radioprotective, fibrinolytic and vasodilative properties, and inhibits cholinesterase and granulation tissue. DMSO also has been used as an agent to increase the penetrability of other substances. […] This capability of DMSO has increased with an increase of the DMSO concentration, and the best results have been observed for usage of DMSO (USP grade) in the concentration essentially of 100%.

With `C[C@H]1[C@H](C)CC[C@]2(C(=O)O)CC[C@]3(C)C(=CC[C@@H]4[C@@]5(C)CC[C@H](O)C(C)(C)[C@@H]5CC[C@]43C)[C@H]12` [Ursolic acid], the elastase inhibition result in test [1] is listed as “potent elastase inhibitor”. As for `C[S+](C)[O-]` [DMSO, dimethyl sulfoxide], in test [2], the “effect on small capillaries” value is given as “constricts small capillaries”.

(Values after US20110135763A1, “Antiseptic formulation especially for prevention of complications associated with skin burns” (priority 2009, published 2011).)
